{"source": "patent US20050227918A1", "about": "“Method for assaying susceptibility to cancer therapy in a subject by assaying for tumors of P53” (priority 2004, published 2005)", "key": {"[1]": {"test_system": "H1299 p53-/- cells", "experiment": "Flow cytometric analysis of apoptosis (sub-G1) and cell cycle in H1299 cells inducibly expressing 72R or 72P wild-type p53", "assay_type": "cell-based, Human", "conditions": "for apoptosis (sub-G1 fraction), 72R versus 72P expressing cells: induced H1299, 5-FU 50 μg/ml, cisplatin, taxol, etoposide, doxorubicin; for apoptosis (sub-G1 fraction), 72R versus 72P expressing cells / difference in apoptosis between 72R and 72P: camptothecin 5 μM, 24 hours; for difference in apoptosis between 72R and 72P: H1299 clones, doxorubicin 1 μg/ml; for apoptosis and cell cycle effect on induction of 72P p53: H1299 induced to express 72P wild-type p53; for apoptosis and cell cycle effect on induction of 72P p53 / apoptosis and cell cycle effect on induction of 72R p53: cisplatin 1 μg/ml, taxol 500 ng/ml, flow cytometry after 24 hours; for apoptosis and cell cycle effect on induction of 72R p53: H1299 induced to express 72R wild-type p53", "description": "72R and 72P wild-type p53 plasmids were constructed by subcloning the inserts from pArgSP53 and pProSP53 (See Matlashewski, et al., Mol. Cell. Biol., 7:961-963 (1987), incorporated by reference) into commercially available pTRE, resulting in pTRE 72R p53 and pTRE 72P p53 plasmids. Human H1299 p53−/− cells, which were maintained in DMEM+10% fetal bovine serum, were transfected with the pTRE 72R p53 and pTRE 72P p53 plasmids in accordance with standard procedures, resulting in H1299 cells lines which inducibly express 72R or 72P p53 protein. These cell lines were grown in DMEM 10% FCS supplemented with 0.5 mg/ml G418 and 0.5 μg/ml puromycin. Expression of 72R or 72P wild-type p53 was induced in H1299 cells by doxycycline or non-induced. […] Control cells were not exposed to drugs. Flow cytometric analysis was then performed after 24 hours as described in Bergamaschi et al., Cancer Cell, 3:387-402 (2003), incorporated by reference. A minimum of six independent 72R-inducible and 72P-inducible clones were analyzed, to obviate the effect of clonal variation.\nFurther tests examined the cellular responses to the anticancer agents camptothecin and 5-fluorouracil (FU). H1299 cells were induced to express equal levels of 72R or 72P wild-type p53, as described supra, or not induced. […] The cells were then exposed to camptothecin (5 μM) or 5-FU (50 μg/ml). Flow cytometric analysis was performed after 24 hours.\nThree experiments were conducted, each analyzing two independent clones of 72R-expressing H1299 cells and two independent clones of 72P-expressing H1299 cells. […] Control cells were not exposed to drugs, and control cells for camptothecin and 5-FU received the drug vehicle only. After 24 hours, apoptosis was determined by flow cytometry as previously described."}, "[2]": {"test_system": "p53", "experiment": "Western Blot analysis of p53 expression in transfected H1299 cells", "assay_type": "cell-based, Human", "conditions": "cisplatin 1 μg/ml, 24 hours; each of the four variants 46A/46S 72R/72P", "experimental": "H1299 cells were cotransfected with pcDNA3 CD20 and plasmids expressing 46A 72R, 46A 72P, 46S 72R, or 46S 72P wild-type p53 or with an empty vector (no p53, as a control), as described supra. […] After 24 hours, the cells were analyzed by flow cytometry. Western Blot analysis of p53 expression was also performed."}, "[3]": {"test_system": "p73", "experiment": "Western blotting of endogenous p73 steady state levels following drug treatment", "assay_type": "cell-based", "conditions": "24 hours; for levels of p73 in HN30: head and neck squamous cell line HN30", "experimental": "The squamous carcinoma cell lines (“SCC”) tested included cells of the head and neck, cervix, vulva, and immortalized skin […]. […] The cells were exposed to the drugs for 24 hours, after which they were harvested in a lysis buffer (50 mM Tris, 250 mM NaCl, 0.1% Nonidet NP-40, 5 mM EDTA, 1 mM PMSF, with a protease inhibitor cocktail). […] The immunoprecipitates were then resolved, on 10% polyacrylamide gels, and immunoblotted with the antibody, and a secondary anti-mouse light chain antibody conjugated to horseradish peroxidase, which was then visualized using standard methods."}, "[4]": {"test_system": "p53", "experiment": "siRNA and drug effect on p53 levels in squamous carcinoma cell lines (Western blotting)", "assay_type": "cell-based", "conditions": "head and neck squamous cells; siRNA 100 nM; doxorubicin 1 μg/ml, taxol 500 ng/ml, cisplatin 10 μg/ml; 24 hours", "experimental": "After 24 hours, cell lysates were prepared and analyzed via Western blotting."}, "[5]": {"test_system": "Saos-2 cells", "experiment": "Apoptosis (sub-G1) in Saos-2 cells expressing dominant-negative p73 inhibitors", "assay_type": "cell-based", "conditions": "for sensitivity to apoptosis of Saos-2 cells expressing p73Δ2 and p73DD: dominant-negative p73 inhibitors; for sensitivity to apoptosis of Saos-2 lines expressing p73DD (L371P): inactive point mutation", "experimental": "The Saos-2 cells were maintained, as described, supra, and cell lines stably expressing the dominant negative inhibitors were generated by transfection, and then cultivation in the presence of 400 μg/ml of G418. Isolated colonies were ring cloned, and then the expression of transfected sequences was confirmed.\nThe cells, when in exponential growth phase, received 10 μg of a plasmid encoding p73, and 3 μg of pcDNA3CD20. Twenty-four hours after transfection, cells were harvested, stained with propidiumiodide, and apoptosis was determined as percentage of sub-G1 cells.\nIn brief, this was determined by seeding 10^2-10^6 cells, in quadruplicate, onto 9 cm tissue culture dishes, and were treated, 24 hours later, for 2 hours, with cytotoxic drugs at various concentrations. Following drug exposure, the cells were grown until visible colonies appeared. They were then fixed in methanol, and stained with Giemsa. Survival was calculated relative to the cells receiving the drug vehicle alone."}, "[6]": {"test_system": "H1299 cells", "experiment": "Colony-survival assays of H1299 cells expressing p53 variants", "assay_type": "cell-based, Human", "experimental": "The cytotoxicity of anticancer agents was determined in colony-survival assays of H1299 cells using standard protocols, following Bergamaschi, et al., supra, and as per the earlier examples. Briefly, H1299 cells were treated with doxycycline to induce p53 and plated at multiple densities. […] After drug exposure, cells were re-plated in drug free medium and grown until the appearance of visible colonies. Each drug exposure was done in triplicate in at least three experiments.\nFurther tests were performed to see if 46S influences cellular sensitivity to anticancer drugs in 72R-expressing cells."}, "[7]": {"test_system": "p53", "experiment": "siRNA effect on steady state levels of p53 mutant in cells expressing 72P 173L or 72R 173L", "assay_type": "cell-based", "conditions": "siRNA 10-100 μM as printed", "experimental": "To investigate this small inhibitory RNA (“siRNA”) oligonucleotides were used. The sequences:\nThe siRNA oligos were transfected into cells, in amounts ranging from 10-100 μM, using commercially available reagents. The siRNA was introduced into cells expressing either the 72P 173L mutant or the 72R173L mutant. Both were shown, supra, to inhibit p73."}, "[8]": {"test_system": "Hacat cells", "experiment": "Drug-induced apoptosis after p53 siRNA", "assay_type": "cell-based", "conditions": "100 nM siRNA, drugs 48 hours later"}, "[9]": {"test_system": "Saos-2 cells", "assay_type": "cell-based", "experimental": "The Saos-2 cells which had been engineered to stably express 72R and 72P mutants were then tested, in assays designed to determine whether p53 siRNA impacted drug resistance. Saos-2 cells which expressed 72R173Lp53 were treated with 100 nM of siRNA for p53, or with the same amount of PGL siRNA. […] Survival was assessed via colony forming ability."}, "[10]": {"test_system": "p53-p73 complexes", "experiment": "p53-p73 complexes and p73 in Hacat cells after siRNA and drug treatment", "assay_type": "cell-based", "conditions": "100 nM siRNA", "experimental": "As a follow up to the work, supra, experiments were carried out to determine if the siRNA influenced association of the mutant p53 molecules with p73. […] Cell lysates were prepared after 24 hours, and p53-p73 complexes were analyzed, as described supra."}}, "note": "Entries after “also recorded” stand apart in the source; their conditions may differ. d = 2'-deoxy (DNA); r = 2'-OH (RNA)"}
{"compound": "O=c1[nH]cc(F)c(=O)[nH]1", "note": "[5-FU, 5-fluorouracil]", "values": [{"measurement": "apoptosis (sub-G1 fraction), 72R versus 72P expressing cells", "setting": "[1]", "value": "apoptosis was always higher in cells expressing the 72R p53 variant"}]}
{"compound": "CC[C@@]1(O)C(=O)OCc2c1cc1n(c2=O)Cc2cc3ccccc3nc2-1", "note": "[camptothecin]", "values": [{"measurement": "difference in apoptosis between 72R and 72P", "setting": "[1]", "value": "twofold"}, {"measurement": "apoptosis (sub-G1 fraction), 72R versus 72P expressing cells", "setting": "[1]", "value": "apoptosis was always higher in cells expressing the 72R p53 variant"}]}
{"compound": "N.N.[Cl][Pt][Cl]", "note": "[cisplatin]", "values": [{"measurement": "apoptosis and cell cycle effect on induction of 72P p53", "setting": "[1]", "value": "minimal apoptosis but predominantly G1 arrest"}, {"measurement": "apoptosis and cell cycle effect on induction of 72R p53", "setting": "[1]", "value": "increased sub-G1 fraction and a smaller G1 peak"}, {"measurement": "levels of p53 protein after treatment", "setting": "[2]", "value": "increased"}, {"measurement": "levels of p73 in HN30", "setting": "[3]", "value": "increased the levels of p73"}, {"measurement": "p53 levels", "setting": "[4]", "value": "unaffected"}, {"measurement": "sensitivity to apoptosis of Saos-2 cells expressing p73Δ2 and p73DD", "setting": "[5]", "value": "less sensitive to apoptosis"}, {"measurement": "sensitivity to apoptosis of Saos-2 lines expressing p73DD (L371P)", "setting": "[5]", "value": "sensitivity similar to control Saos-2 cells"}, {"measurement": "sensitivity of cells expressing 46A 72P p53 versus 46S 72P p53", "setting": "[6]", "value": "similar"}]}
{"compound": "COc1cccc2c1C(=O)c1c(O)c3c(c(O)c1C2=O)C[C@@](O)(C(=O)CO)C[C@@H]3O[C@H]1C[C@H](N)[C@H](O)[C@H](C)O1", "note": "[doxorubicin]", "values": [{"measurement": "difference in apoptosis between 72R and 72P", "setting": "[1]", "value": "eightfold"}, {"measurement": "p73 level, all cell lines", "setting": "[3]; 1 μg/ml doxorubicin, squamous carcinoma cell lines and Saos-2", "value": "increased p73 in all cell lines"}, {"measurement": "levels of p73 in HN30", "setting": "[3]", "value": "increased the levels of p73"}, {"measurement": "p53 levels", "setting": "[4]", "value": "unaffected"}, {"measurement": "sensitivity to apoptosis of Saos-2 cells expressing p73Δ2 and p73DD", "setting": "[5]", "value": "less sensitive to apoptosis"}, {"measurement": "sensitivity to apoptosis of Saos-2 lines expressing p73DD (L371P)", "setting": "[5]", "value": "sensitivity similar to control Saos-2 cells"}, {"measurement": "cytotoxic effect in cells expressing 46A 72R p53 relative to 46S 72R p53", "setting": "[6]", "value": "diminished"}, {"measurement": "sensitivity of cells expressing 46A 72P p53 versus 46S 72P p53", "setting": "[6]", "value": "similar"}]}
{"compound": "CC(=O)O[C@H]1C(=O)[C@@]2(C)[C@H]([C@H](OC(=O)c3ccccc3)[C@]3(O)C[C@H](OC(=O)[C@H](O)[C@@H](NC(=O)c4ccccc4)c4ccccc4)C(C)=C1C3(C)C)[C@]1(OC(C)=O)CO[C@@H]1C[C@@H]2O", "note": "[taxol]", "values": [{"measurement": "apoptosis and cell cycle effect on induction of 72P p53", "setting": "[1]", "value": "minimal apoptosis but predominantly G1 arrest"}, {"measurement": "apoptosis and cell cycle effect on induction of 72R p53", "setting": "[1]", "value": "increased sub-G1 fraction and a smaller G1 peak"}, {"measurement": "levels of p73 in HN30", "setting": "[3]", "value": "increased the levels of p73"}, {"measurement": "p53 levels", "setting": "[4]", "value": "unaffected"}, {"measurement": "sensitivity to apoptosis of Saos-2 cells expressing p73Δ2 and p73DD", "setting": "[5]", "value": "less sensitive to apoptosis"}, {"measurement": "sensitivity to apoptosis of Saos-2 lines expressing p73DD (L371P)", "setting": "[5]", "value": "sensitivity similar to control Saos-2 cells"}]}
{"compound": "p53 siRNA: small inhibitory RNA oligonucleotides, SEQ ID NO: 1 CUACUUCCUGAAAACAACG(d)TT and SEQ ID NO: 2 CGUUGUUUUCAGGAAGUAGd(TT) (chain 1 CUACUUCCUGAAAACAACGTT; chain 2 CGUUGUUUUCAGGAAGUAGTT; sugars from the 5' end r19 d2, backbone not given here)", "values": [{"measurement": "steady state levels of p53 polymorphic variants of the mutant", "setting": "[7]", "value": "dose dependent reduction"}, {"measurement": "apoptosis after siRNA followed by anticancer drugs, compared to controls", "setting": "[8]", "value": "clear increase in apoptosis"}, {"measurement": "effect of siRNA on drug sensitivity, 143L mutant", "setting": "[9]; Saos-2", "value": "similarly small effect"}, {"measurement": "sensitivity to cisplatin and doxyrubicin of cell lines expressing 175H, 179Y, 179R, 245S, 248W, 249S, 273C and 282W", "setting": "[9]; both polymorphic forms", "value": "increased sensitivity"}, {"measurement": "amount of p53 which associated with p73", "setting": "[10]", "value": "clear decrease"}, {"measurement": "increase in p73 production associated with drug exposure", "setting": "[10]", "value": "not affected"}, {"measurement": "p53 levels", "setting": "[4]", "value": "reduced steady state levels of p53; also recorded: downregulated"}]}
